Here are results for four molecules from patent US20100041760A1, “MONOARYL AMINOTETRALINES” (priority 2008, published 2010).

In this assay the test system is DK-PGD2-induced IL-13 production in T helper type 2 (Th2) cells. The assay is described as follows: DK-PGD2-Induced IL-13 Production Assay in Th2 Cells. In kind it is cell-based. The settings on record: human Th2 cells; 500 nM DK-PGD2; 4 hrs at 37° C.; 10% human AB serum; ELISA; read-out: IC50 value, inhibition of IL-13 production. Here is the method:
Cultures of Th2 cells were established from blood of healthy human volunteers according to the following procedure. Peripheral blood mononuclear cells (PBMC) were first isolated from 50 mL of fresh blood by Ficoll-Hypaque density gradient centrifugation, followed by CD4^+ cell purification using a CD4^+ T Cell Isolation Kit II (from Miltenyi Biotec Inc.). The CD4^+ T cells were then differentiated to Th2 cells by culturing the cells in X-VIVO 15® medium (from Cambrex BioScience Walkersville Inc.) containing 10% human AB serum (serum of blood type AB from Invitrogen Corporation), 50 U/mL of recombinant human interleukin-2 (rhIL-2) (from PeproTech Inc.) and 100 ng/mL of recombinant human interleukin-4 (rhIL-4) (from PeproTech Inc.) for 7 days. The Th2 cells were isolated using a CD294 (CRTH2) MicroBead Kit (from Miltenyi Biotec Inc.) and amplified in X-VIVO 15® medium containing 10% human AB serum and 50 U/mL of rhIL-2 for 2 to 5 weeks. In general, 70% to 80% of the Th2 cells used in the assay are CRTH2-positive when analyzed by fluorescence-activated cell sorting using the BM16 antibody (as previously described) conjugated to phycoerythrin (PE).
To determine cellular inhibitory potency, compounds at various concentrations were incubated with 2.5×10^4 Th2 cells and 500 nM DK-PGD2 for 4 hrs at 37° C. in 200 μL of X-VIVO 15® medium containing 10% human AB serum. […] The spontaneous production of IL-13 by Th2 cells was determined in the absence of DK-PGD2 stimulation and the value was subtracted from that in the presence of each compound for percent inhibition and IC50 calculations.
The percent inhibition of interleukin 13 (IL-13) production for a compound at various concentrations was calculated according to the following formula, [1-(IL-13 production in the presence of compound)/(IL-13 production in the presence of 0.15% DMSO)]×100. The IC50 value, defined as the concentration of a compound that is required for 50% inhibition of IL-13 production, was calculated by fitting the percent inhibition data for 7 concentrations to a sigmoidal dose-response (4 parameter logistic) model in the XLfit® software Excel add-in program [ID Business Solutions Ltd., model 205, where F(x)=(A+(B−A)/(1+((C/x)̂D)))].

pIC50: −log10 of the molar value.

Turning to `CN([C@@H]1CCCc2c(OCC(=O)O)cccc21)S(=O)(=O)c1cc(F)cc(C(F)(F)F)c1` [Example 1-1, {(R)-5-[(3-fluoro-5-trifluoromethyl-benzenesulfonyl)-methyl-amino]-5,6,7,8-tetrahydro-naphthalen-1-yloxy}-acetic acid], the pIC50 was 5.33.

In the case of `CCN(CC)c1cc(C(F)(F)F)cc(S(=O)(=O)N(C)[C@@H]2CCCc3c(OCC(=O)O)cccc32)c1` [Example 4-2, {(R)-5-[(3-diethylamino-5-trifluoromethyl-benzenesulfonyl)-methyl-amino]-5,6,7,8-tetrahydro-naphthalen-1-yloxy}-acetic acid], the pIC50 was 5.52.

Regarding `CN([C@@H]1CCCc2c(OCC(=O)O)cccc21)S(=O)(=O)c1cc(OC2CCCC2)cc(C(F)(F)F)c1` [Example 9-3, {(R)-5-[(3-cyclopentyloxy-5-trifluoromethyl-benzenesulfonyl)-methyl-amino]-5,6,7,8-tetrahydro-naphthalen-1-yloxy}-acetic acid], the pIC50 is 5.29.

As for `CCOc1cc(C(F)(F)F)cc(S(=O)(=O)N(C)[C@@H]2CCCc3c(OCC(=O)O)cccc32)c1` [Example 9-2, {(R)-5-[(3-ethoxy-5-trifluoromethyl-benzenesulfonyl)-methyl-amino]-5,6,7,8-tetrahydro-naphthalen-1-yloxy}-acetic acid], the pIC50 was 5.31.
